From patent US6335443B1, “Chemical synthesis of exochelins” (Keystone Biomedical, Inc., priority 1998, dated 2002)
Where “and” joins values, the source holds several entries; their conditions need not be identical. Equal values may be shown once. Values belong to the substance of their own block, whether it stands above or below them.

Key:
ferri-Exochelin 758SM [1] = assay: Capacity to remove iron from a different Exochelin species (Ferri-Exochelin 758SM); format: binding; details: for % Iron-Saturation 0 h / % of Calculated Iron-Saturation at Equilibrium 0 h / % of Calculated Iron-Saturation at Equilibrium 1 h / % Iron-Saturation 1 h: Table 1; for % Iron-Saturation 0 h / % Iron-Saturation 0 hour / % Iron-Saturation 1 hour / % Iron-Saturation 1 h: mixed with ferri-Exochelin 758SM
Protocol: C. Capacity to Remove Iron from a Different Exochelin Species. To assess the affinity of the synthetic desferri-Exochelin 772SM(R) for iron, its capacity to remove iron from a different Exochelin species, ferri-Exochelin 758SM, was evaluated. The capacity of synthetic and native desferri-Exochelin 772SM(R) to remove iron from ferri-Exochelin 758SM was also evaluated and compared. Either native or synthetic desferri-Exochelin 772SM(R) were independently mixed with ferri-Exochelin 758SM. The amount of iron acquired in 1 hour by the desferri-Exochelins was assayed by subjecting the Exochelin to reverse-phase HPLC on a phenyl column, as described above, and the area under the 450 nm absorbance peak was measured. The amount of iron-Exochelin was then calculated using a conversion factor derived from assaying known amounts of ferri-Exochelin 772SM(R).
C. Capacity to Remove Iron from a Different Exochelin Species. To assess the affinity of the synthetic desferri-Exochelin 772SM(S) for iron, its capacity to remove iron from a different exochelin species, ferri-Exochelin 758SM was evaluated. The capacity of synthetic desferri-Exochelin 772SM(S) and native desferri-Exochelin 772SM(R) to remove iron from ferri-Exochelin 758SM was also evaluated and compared. Either synthetic desferri-Exochelin 772SM(S) or native desferri-Exochelin 772SM(R) was mixed with ferri-Exochelin 758SM. The amount of iron acquired by the desferri-exochelins after 1 hour was assayed by subjecting the molecule to reverse-phase HPLC on a phenyl column, as described above, and the area under the 450 nm absorbance peak was measured. The amount of iron-exochelin was then calculated using a conversion factor derived from assaying known amounts of ferri-Exochelin 772SM(R) and ferri-Exochelin 772SM(S).

ferri-Exochelin 758SM [2] = assay: Capacity to remove iron from Ferri-Exochelin 758SM in the same vial (772SM(R) vs 772SM(S)); format: binding; details: Table 3, 772SM(R), 772SM(S) and 758SM in the same vial
Protocol: To further assess the relative affinities of the stereoisomers desferri-Exochelin 772SM(R) and 772SM(S) for iron, their capacity to remove iron from a different exochelin species in the same vial were compared.
In the experiment,15.6 μg of 1.1% iron-saturated synthetic Exochelin 772SM(R) and 17.4 μg of 1.0% iron-saturated synthetic Exochelin 772SM(S) was mixed with 13.5 μg of 100% iron-saturated native Exochelin 758SM.

[3] = target: T1, 40% iron-saturated human transferrin (Homo sapiens, UniProt P02787); assay: Capacity to remove iron from 40% iron-saturated human transferrin; format: biochemical; details: Fe3+:desferri-Exochelin 10:1, PBS pH 7.4
T1 sequence (P02787 20-698): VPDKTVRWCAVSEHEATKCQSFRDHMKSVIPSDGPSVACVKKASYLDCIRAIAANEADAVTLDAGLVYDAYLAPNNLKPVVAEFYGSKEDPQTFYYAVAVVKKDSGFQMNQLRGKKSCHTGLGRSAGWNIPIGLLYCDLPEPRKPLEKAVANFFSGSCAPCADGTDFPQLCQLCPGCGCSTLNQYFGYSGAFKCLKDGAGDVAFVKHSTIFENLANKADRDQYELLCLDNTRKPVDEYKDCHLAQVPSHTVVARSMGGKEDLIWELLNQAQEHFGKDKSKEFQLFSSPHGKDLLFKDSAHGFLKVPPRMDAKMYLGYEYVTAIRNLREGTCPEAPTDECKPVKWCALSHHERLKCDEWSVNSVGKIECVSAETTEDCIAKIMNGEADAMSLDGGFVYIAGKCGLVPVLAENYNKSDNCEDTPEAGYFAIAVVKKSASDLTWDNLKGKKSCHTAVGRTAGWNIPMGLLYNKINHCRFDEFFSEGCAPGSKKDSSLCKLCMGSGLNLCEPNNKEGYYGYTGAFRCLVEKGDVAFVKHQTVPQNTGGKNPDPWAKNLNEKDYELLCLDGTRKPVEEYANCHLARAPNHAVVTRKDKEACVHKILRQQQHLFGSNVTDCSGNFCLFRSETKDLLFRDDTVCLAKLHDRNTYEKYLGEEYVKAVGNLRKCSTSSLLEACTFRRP
Protocol: (§1) A. 40% Iron-Saturated Human Transferrin. To assess the capacity of the 3 different desferri-Exochelins to remove iron from 40% iron-saturated human transferrin, each of them was incubated for 1, 3, and 24 hours with 40% iron-saturated transferrin such that the ratio of Fe^3+: desferri-Exochelin equaled 10:1. The incubation was carried out in PBS, pH 7.4. Afterwards, the Exochelin and transferrin were separated from each other by centrifugation through a 10,000 dalton cut-off filter. The transferrin (mass 76,000 daltons) was completely excluded by this filter whereas 85% of the Exochelin (mass<1,000) was recovered in the filtrate. To determine the total amount of exochelin recovered, the exochelin in the filtrate was saturated with a 20:1 molar excess of ferric ammonium citrate and subjected to reverse-phase HPLC as described above. To determine the amount of iron-saturated Exochelin in the filtrate at each time point, the filtrate was subjected to reverse-phase HPLC without the addition of iron. The % iron-saturation was calculated as follows: [formula]

[4] = target: holo-transferrin (92% iron-saturated human transferrin) (Homo sapiens, UniProt P02787); assay: Capacity to remove iron from holo-transferrin (92% iron-saturated human transferrin); format: biochemical; details: Fe3+:desferri-Exochelin 10:1
holo-transferrin (92% iron-saturated human transferrin), sequence (P02787 20-698): as above
Protocol: as §1
B. Holo-Transferrin (92% Iron-Saturated Human Transferrin). To assess the capacity of the 3 different desferri-Exochelins to remove iron from holo-transferrin (92% iron-saturated human transferring, each of them was incubated for 1, 3, and 24 h with 92% iron-saturated transferrin such that the ratio of Fe^3+: desferri-Exochelin equaled 10:1, as in the aforementioned study with 40% iron-saturated transferrin. The % iron-saturation of the Exochelins was assayed as above.

[5] = target: human apotransferrin (<0.7% iron-saturated) (Homo sapiens, UniProt P02787); assay: Control incubation with human apotransferrin (<0.7% iron-saturated); format: biochemical; details: apotransferrin 38 mg/ml
human apotransferrin (<0.7% iron-saturated), sequence (P02787 20-698): as above
Protocol: as §1
C. Apotransferrin (<0.7% Iron-Saturated Human Transferrin). As a control, the three desferri-exochelins were incubated for 3 h and 24 h with human apotransferrin (<0.7% iron-saturated) at a concentration of 38 mg/ml, the same concentration of protein as in the study utilizing 92% iron-saturated transferrin in B above. None of the desferri-exochelins acquired appreciable amounts of iron (Table 6).

[6] = target: T1, 40% iron-saturated human transferrin; assay: Capacity to remove iron from 40% iron-saturated human transferrin; format: biochemical; details: Fe3+:desferri-Exochelin 10:1, PBS pH 7.4; remark: listed apart in the source
[7] = assuming comparable affinities for iron, 15.1 µg 772SM(R), Experiment I
[8] = assuming comparable affinities for iron, 15.8 µg 772SM(R), Experiment II
[9] = listed as Native Desferri-Exochelin 772SM(R)
[10] = listed as native desferri-exochelin 772SM(R)

Substance: Exochelin 758SM [Native 758SM, reference compound]
- % Iron-Saturation 0 h (ferri-Exochelin 758SM [1]): 100%
- % Iron-Saturation 0 hour (ferri-Exochelin 758SM [1]; Table 2, 0 hour): 100%
- % Iron-Saturation 1 hour (ferri-Exochelin 758SM [1]; Table 2, with native desferri-Exochelin 772SM(R)): 61.7%
- % Iron-Saturation 1 hour (ferri-Exochelin 758SM [1]; Table 2, with synthetic desferri-Exochelin 772SM(R)): 55.9%
- % Iron-Saturation 1 hour (ferri-Exochelin 758SM [1]; Table 2, with synthetic desferri-Exochelin 772SM(S)): 54.1%
- % Iron-Saturation 0 hour (ferri-Exochelin 758SM [2]; 0 hour): 100%
- % Iron-Saturation 1 hour (ferri-Exochelin 758SM [2]; 1 hour): 40.0%

- Iron-Saturation 1 h ([3]; 1 h): 9.3%
- Iron-Saturation 3 h ([3]; 3 h): 13.8%
- Iron-Saturation 24 h [3, 9]: 34.0%
- Iron-Saturation 24 h [3, 10]: 34.0%
- Iron-Saturation 0 h ([4]; 0 h): 2.8%
- Iron-Saturation 1 h ([4]; 1 h): 11.6%
- Iron-Saturation 3 h ([4]; 3 h): 19.0%
- Iron-Saturation 24 h [4, 9]: 54.1%
- Iron-Saturation 24 h [4, 10]: 54.1%
- Iron-Saturation 0 h ([5]; 0 h): 2.8%
- Iron-Saturation 3 h ([5]; 3 h): 9.3%
- Iron-Saturation 24 h ([5]; 24 h): 6.8%
- Iron-Saturation 0 h [6]: 2.8%
Substance: Exochelin 772SM(R) [Native 772SM(R), reference compound]
- % of Calculated Iron-Saturation at Equilibrium 0 h (ferri-Exochelin 758SM [1]; [7]): 6.8%
- % of Calculated Iron-Saturation at Equilibrium 0 h (ferri-Exochelin 758SM [1]; [8]): 5.0%
- % Iron-Saturation 0 h (ferri-Exochelin 758SM [1]): 2.8%
- % of Calculated Iron-Saturation at Equilibrium 1 h (ferri-Exochelin 758SM [1]; [7]): 85.8%
- % of Calculated Iron-Saturation at Equilibrium 1 h (ferri-Exochelin 758SM [1]; [8]): 81.6%
- % of Calculated Iron-Saturation at Equilibrium 1 h (ferri-Exochelin 758SM [1]; assuming comparable affinities for iron, listed as native Exochelin 772SM(R)): 85.8% and 81.6%
- % Iron-Saturation 1 h (ferri-Exochelin 758SM [1]; 15.1 µg 772SM(R), Experiment I): 46.4%
- % Iron-Saturation 1 h (ferri-Exochelin 758SM [1]; 15.8 µg 772SM(R), Experiment II): 45.6%
- % Iron-Saturation 1 h (ferri-Exochelin 758SM [1]; listed as native Exochelin 772SM(R)): 46.4% and 45.6%
- % of Calculated Iron-Saturation at Equilibrium 0 hour (ferri-Exochelin 758SM [1]; Table 2, 0 hour, assuming comparable affinities for iron): 5.4%
- % Iron-Saturation 0 hour (ferri-Exochelin 758SM [1]; Table 2, 0 hour): 2.8%
- % of Calculated Iron-Saturation at Equilibrium 1 hour (ferri-Exochelin 758SM [1]; Table 2, assuming comparable affinities for iron): 88.7%
- % of Calculated Iron-Saturation at Equilibrium 1 hour (ferri-Exochelin 758SM [1]; Table 2, assuming comparable affinities for iron, listed as native Exochelin 772SM(R)): 88.7%
- % Iron-Saturation 1 hour (ferri-Exochelin 758SM [1]; Table 2): 46.2%
